Source: patent US20200237731A1, “USE OF CLOXACILLIN TO INHIBIT/PREVENT BIOFILM FORMATION” (priority 2017, published 2020)
Like-named read-outs stand apart in the source and are kept apart here.

Tests used:
[1] = system: clinical strains of Staphylococcus aureus; test: MIC of cloxacillin by growth (absorbance) in 96-well microplates, Mueller-Hinton medium; format: cell-based; details: for MIC: Staphylococcus aureus, read-out: MH MIC
Experimental: The determination of each minimum inhibitory concentration (MIC) of cloxacillin was measured conventionally by measuring the growth of each strain in 96-well microplates in the presence of concentrations of antibiotic by absorbance.
The MIC was measured in Mueller-Hinton medium (MH; reference medium for antibiotic susceptibility testing) and brain heart infusion (BHI) medium.

[2] = system: Staphylococcus aureus strains S14 and S39; test: Implanted subcutaneous catheter infection model in mice; format: in vivo; details: 12 h, 24 h and 30 h
[3] = system: Staphylococcus aureus strain S14; test: Infected skin wound healing model in mice; format: in vivo, C57BL/6 mice
Experimental: The objective of these trials was to test the efficacy of cloxacillin, at selected doses, in an in vivo model of mouse skin wound infection with strains of Staphylococcus aureus. The in vivo efficacy of specific doses of cloxacillin, derived from the in vitro MIC and MICb doses, was determined by measuring bacterial load (established as a biofilm) at 12 h, Day 5 and Day 11 post-infection, and by measuring wound healing at Day 5 and Day 11 post-infection (as a wound healing score).
In this example, the mice used were 7-week-old female C57BL/6 mice weighing between 20 and 22 g from Janvier Labs, Le Genest St Isle, 53941 St Berthevin, France. The number of mice used was 5 per condition tested.
The concentration of S. aureus was adjusted in PBS to give a concentration of 10^6 CFU in 10 μL (10^8 CFU/mL). The mice, shaved on their backs, were anaesthetized with isoflurane gas and then 4 incisions were made on each side of the spine, defining 2 areas. In each mouse, only one of the areas was infected by subcutaneous injection of 10 μL of S. aureus solution, with the contralateral area serving as the uninfected control.
To test the effect of cloxacillin, 3 groups of mice received, 30 minutes pre-infection, a “preventive” treatment of 5 mg/kg cloxacillin (for mice subsequently receiving cloxacillin at 3 mg/kg) or 30 mg/kg cloxacillin (for mice subsequently receiving cloxacillin at 15 mg/kg) or sterile saline intraperitoneally. These doses were determined in an in-house PK/PD study.
The mice were then treated every two hours after the first preventive treatment for 10 hours with cloxacillin at 3 mg/kg or 15 mg/kg or saline. These doses were pre-determined to simulate blood levels between the planktonic MIC and the biofilm MIC of strain S14.
Three groups of mice were used, a first group being sacrificed at t+12 h after infection to measure the bacterial load. A second group was treated identically and sacrificed 5 days after infection and a third group, treated identically, was sacrificed 11 days after infection. Each day, a healing score is established on the animals, and on the sacrificed animals, a count of the bacteria installed is made (at D5 and D11). The score is established as follows, assigning a value between 0 and 3.
The skin at the wounds is cut, rinsed in PBS to remove non-adhered bacteria and then the tissue is homogenized in Precellys tubes using glass beads. The resulting homogenate was diluted serially, and different dilutions were spread on TSA media plates and cultured overnight at 37° C. Colonies (CFU) were quantified for each dilution and the bacterial load at the wound site was determined.

Cc1onc(-c2ccccc2Cl)c1C(=O)N[C@@H]1C(=O)N2[C@@H]1SC(C)(C)[C@@H]2C(=O)O [cloxacillin] was tested. Which MIC ([1]; strain S02) did it give?
Its MIC is 0.125 mg/L.

And the MIC ([1]; strain S04)?
Its MIC is 0.25 mg/L.

And the MIC ([1]; strain S08)?
Its MIC is 0.25 mg/L.

And the MIC ([1]; strain S11)?
The MIC was 0.5 mg/L.

What about the MIC ([1]; strain S14) of the same compound?
Its MIC is 0.25 mg/L.

And the MIC ([1]; strain S16)?
Its MIC is 0.25 mg/L.

And the MIC ([1]; strain S19)?
The MIC was 0.5 mg/L.

What about the MIC ([1]; strain S21) of the same compound?
Its MIC is 0.25 mg/L.

What about the MIC ([1]; strain S22) of the same compound?
The MIC was 0.5 mg/L.

What about the MIC ([1]; strain S26) of the same compound?
Its MIC is 0.25 mg/L.

And the MIC ([1]; strain S27)?
The MIC was 0.25 mg/L.

What about the MIC ([1]; strain S31) of the same compound?
The MIC was 0.25 mg/L.

What about the MIC ([1]; strain S34) of the same compound?
Its MIC is 0.5 mg/L.

And the MIC ([1]; strain S38)?
The MIC was 0.5 mg/L.

What about the MIC ([1]; strain S39) of the same compound?
The MIC was 0.5 mg/L.

And the MIC ([1]; strain S40)?
Its MIC is 0.5 mg/L.

And the MIC ([1]; strain S43)?
Its MIC is 0.25 mg/L.

And the MIC ([1]; strain S44)?
Its MIC is 0.25 mg/L.

And the MIC ([1]; strain S46)?
The MIC was 0.25 mg/L.

And the MIC ([1]; strain S47)?
Its MIC is 0.25 mg/L.

What about the MIC ([1]; strain S51) of the same compound?
The MIC was 0.25 mg/L.

And the MIC ([1]; strain S58)?
Its MIC is 0.25 mg/L.

And the MIC ([1]; strain S62)?
Its MIC is 0.25 mg/L.

And the MIC ([1]; strain S63)?
The MIC was 0.25 mg/L.

What about the MIC ([1]; strain S74) of the same compound?
The MIC was 0.25 mg/L.

And the MIC ([1]; strain S83)?
Its MIC is 0.125 mg/L.

And the “MH MIC” value ([1]; strain S02)?
The value was 0.125 mg/L.

What about the “MH MIC” value ([1]; strain S38) of the same compound?
The value was 0.5 mg/L.

What about the “MH MIC” value ([1]; strain S58) of the same compound?
The value was 0.25 mg/L.

What about the “MH MIC” value ([1]; strain S83) of the same compound?
The value was 0.125 mg/L.

What about the “bacteria attached to the implanted catheter (log CFU/g catheter) vs control” value ([2]; strain S14, MIC dose (5 mg/kg pre-infection, then 3 mg/kg every 2 h for 10 h, intraperitoneal)) of the same compound?
The value was “ineffectiveness”.

What about the “bacteria attached to the implanted catheter (log CFU/g catheter) vs control” value ([2]; strain S14, MICb dose (30 mg/kg pre-infection, then 15 mg/kg every 2 h for 10 h, intraperitoneal)) of the same compound?
The value was “statistically significant difference from control (***)”.

What about the “bacteria attached to the implanted catheter (log CFU/g catheter) vs control” value ([2]; strain S39, MIC dose (7 mg/kg pre-infection, then 4 mg/kg every 2 h for 10 h, intraperitoneal)) of the same compound?
The value was “ineffectiveness”.

And the “bacteria attached to the implanted catheter (log CFU/g catheter) vs control” value ([2]; strain S39, MICb dose (45 mg/kg pre-infection, then 25 mg/kg every 2 h for 10 h, intraperitoneal))?
The value was “statistically significant difference from control (***)”.

And the wound-healing score ([3]; infected wounds, strain S14, MIC dose (3 mg/kg))?
Its wound-healing score is “absence of cloxacillin effect on wound healing”.

What about the wound-healing score ([3]; infected wounds, strain S14, MICb dose (15 mg/kg), up to day 6) of the same compound?
Its wound-healing score is “decreases more rapidly”.

What about the “decrease of bacterial load at the wound site vs control” value ([3]; strain S14, MICb dose (15 mg/kg), 12 h post-infection) of the same compound?
Its value is roughly 3 logio.

And the wound-healing score ([3]; uninfected wounds)?
The wound-healing score was “does not have a per se effect on wound healing”.
